# According to PubChem BioAssay (NCI):
#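 Growth conditions: 96-well plates. Treatment: test compound, 48 hours, 5 concentrations. Analysis: linear interpolation between bracketing concentrations; unreached endpoints set to highest concentration. GI50: concentration for 50% inhibition of growth. TGI marks complete inhibition of growth.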
# Experiments:
# Assay in all cases: inhibition of tumour cell growth, NCI panel, 48 h
# SNB-19 CNS = system: SNB-19 CNS
# UO-31 renal = system: UO-31 renal
# UACC-257 melanoma = system: UACC-257 melanoma
# MOLT-4 leukemia = system: MOLT-4 leukemia
# 786-0 renal = system: 786-0 renal
# SK-MEL-5 melanoma = system: SK-MEL-5 melanoma
# OVCAR-4 ovarian = system: OVCAR-4 ovarian
# OVCAR-3 ovarian = system: OVCAR-3 ovarian
# A498 renal = system: A498 renal
SMILES,TGI (SNB-19 CNS) [µM],TGI (UO-31 renal) [µM],TGI (UACC-257 melanoma) [µM],TGI (MOLT-4 leukemia) [µM],TGI (786-0 renal) [µM],TGI (SK-MEL-5 melanoma) [µM],TGI (OVCAR-4 ovarian) [µM],TGI (OVCAR-3 ovarian) [µM],TGI (A498 renal) [µM],GI50 (SNB-19 CNS) [µM],GI50 (UO-31 renal) [µM],GI50 (UACC-257 melanoma) [µM],GI50 (MOLT-4 leukemia) [µM],GI50 (786-0 renal) [µM],GI50 (SK-MEL-5 melanoma) [µM],GI50 (OVCAR-3 ovarian) [µM],GI50 (OVCAR-4 ovarian) [µM],GI50 (A498 renal) [µM]
S=C(Nc1ccccc1)Nc1[nH]c(=S)sc1-c1nc2ccccc2[nH]1,> 100,> 100,> 100,> 100,> 100,> 100,81.2,> 100,> 100,,,,,,,,,
Cc1nnc2n1N=C(CC(=O)c1ccc(O)cc1O)CN2N,> 100,> 100,> 100,,> 100,> 100,> 100,,> 100,,,,,,,,,
CCN(CC)CCOc1ccc(/C=C2\C[C@H]3[C@@H]4CC=C5C[C@@H](OC(C)=O)CC[C@]5(C)[C@H]4CC[C@]3(C)[C@H]2OC(C)=O)cc1OC,30.1,27,20,20.6,18.7,17,,22.1,,11.8,11.6,10.6,1.4,9.66,5.39,10.3,,
O=C(O)c1cc(Cl)cc(NC(=O)C(Cl)Cl)c1Cl,> 100,> 100,> 100,> 100,> 100,> 100,> 100,> 100,> 100,,,,,,,,,
COc1cc(C(c2cc3c(cc2O)OCO3)N2CCCC2)cc(OC)c1OC (stereo not drawn),38.2,28.1,36.6,20.7,28.8,41.5,34.2,34.9,36.8,,,,,,,,,
COc1cc2c3c(c1OC)-c1ccccc1C(C(OC(C)=O)c1ccccc1)C3N(C)CC2 (stereo not drawn),> 100,> 100,> 100,> 100,> 100,49.6,> 100,> 100,> 100,,,,,,,,,
CCOC(=O)CCC1(C(=O)OC)CCCC1=O (stereo not drawn),> 100,> 100,> 100,> 100,> 100,> 100,,> 100,> 100,,,,,,,,,
Cc1ccc(C2=Nc3c(N)ncnc3NC(c3cccc(Nc4ccnc5cc(C(F)(F)F)ccc45)c3)C2)cc1 (stereo not drawn),> 100,22.8,84.9,> 100,11.2,4.24,> 100,15.1,6.81,6.71,2.79,10.2,3.4,3.03,2.05,3.47,4.33,1.76
CC(=O)[CH-]C(=O)c1ccccc1.CC(=O)[CH-]C(=O)c1ccccc1.[O]=[U+2]=[O],,,> 100,> 100,> 100,> 100,> 100,> 100,96.9,,,34.3,32.3,40.2,26.8,88.2,40.3,28.7
O=C1OCC(C(=O)c2cccc(O)c2)C1=O (stereo not drawn),> 100,> 100,> 100,,> 100,> 100,> 100,> 100,> 100,,,,,,,,,
CC(C)c1ccc(/C=C(\NC(=O)c2ccccc2)c2nc3ccccc3[nH]2)cc1,> 100,> 100,> 100,69.9,> 100,48.7,> 100,> 100,> 100,,,,,,,,,
CC(C)OP(=O)(CP(=O)(OC(C)C)OC(C)C)OC(C)C.[CH3][Sn]([Br])([Br])[Br],> 100,> 100,> 100,> 100,> 100,> 100,,> 100,> 100,> 100,> 100,> 100,> 100,> 100,> 100,> 100,,> 100
O=C(OCc1ccccc1CN1CCOCC1)c1ccc(Br)cc1,> 100,> 100,> 100,,> 100,41.9,> 100,83.2,> 100,,,,,,,,,
CC1OC(=O)N(CCCC=C2SCCCS2)C1=O (stereo not drawn),> 100,> 100,> 100,> 100,> 100,,> 100,> 100,> 100,,,,,,,,,
c1ccc2c(c1)CCCc1cc3ccccc3nc1-2,> 100,> 100,> 100,> 100,> 100,> 100,> 100,> 100,> 100,,,,,,,,,
COC(=O)/C(C#N)=C1\N=NNN1CCCN1CCOCC1,> 100,> 100,> 100,> 100,> 100,> 100,,> 100,> 100,,,,,,,,,
